Laboratory results: patent US20130338092A1, “COMPOUNDS AND METHODS FOR TARGETING LEUKEMIC STEM CELLS” (The Broad Institute, Inc., priority 2011, published 2013)
“Also recorded” adds a separate entry of the source. Read-outs that look alike come from different tables or passages of the source.

Columns and labels:
[1] = tested on: CD34+ cells from primary human leukemia samples; test: Human CD34+ CAFC assay, leukemia samples; assay type: cell-based; settings: 1.25 μM to 10 μM, 18 hours exposure, read at 5 weeks (2 weeks FLT3-ITD)
Procedure: Samples were centrifuged over Ficoll-Paque PLUS (GE Heathcare) step gradient (2000×g for 30 min in 50 ml tubes) to obtain mononuclear cells and then CD34^+ cells were selected with immunomagnetic beads (MACS Cell Separation, Miltenyi Biotec, Auburn, Calif.), except in one case, NPM1 mutation, which was CD34^− by flow cytometry and mononuclear cells were used. 50,000 cells were placed into 12.5 cm^2 flasks (Becton Dickinson Labware, Franklin Lakes, N.J.) in co-culture with the MS-5 mouse bone marrow-derived stromal cell line (kindly provided by Dr. Itoh, Dept. of Biology, Niigata University, Japan) and DMSO control and the number of final cobblestones was later read. The number of cells needed to form one cobblestone was then placed in triplicate for each sample with each drug at serial drug dilutions from 10 μM to 0.63 μM as well as with DMSO 0.5% for control purposes and incubated overnight with Iscove's modified Dulbecco's medium (IMDM, in house media preparation laboratory)+20% fetal calf serum (FCS, Atlanta Biologicals, Lawrenceville, Ga.) with glutamine (2 mM/ml, in house media preparation laboratory), monothioglycerol (MTG, 10 nM/ml, Sigma Cell Culture, St. Louis Mo.), c-Kit ligand (20 ng/ml, Amgen, Thousand Oaks, Calif.), Flt ligand (20 ng/ml, Imclone, Bridgewater, N.J.), TPO (20 ng/ml, Amgen) and IL-3 (20 ng/ml, Amgen). Cells were then washed to remove the drugs and placed into 96 well cell culture plates (Becton Dickinson) with α-MEM (in house media preparation laboratory)+12.5% FCS+12.5% horse serum (Gemini Bio-products, West Sacramento, Calif.) with glutamine, MTG, hydrocortisone (1 nM/ml, Sigma) and IL-3 in co-culture with MS-5 stromal cells. […] The same procedure was followed with normal CD34+ cells obtained from cord blood.
The cells were treated with compound or DMSO carrier control at four doses (ranging from 1.25 μM to 10 μM) in triplicate for 18 hours, washed thoroughly, then plated onto human stromal MS-5 monolayers (Itoh, K., Tezuka, H., Sakoda, H., Konno, M., Nagata, K., Uchiyama, T., Uchino, H., and Mori, K. J. (1989). Exp Hematol 17, 145-153.) and maintained in coculture with one subsequent half media change. After 5 weeks (2 weeks for the FLT3-ITD sample (Moore, M. A., Dorn, D. C., Schuring a, J. J., Chung, K. Y., and Morrone, G. (2007). Exp Hematol 35, 105-116.)), cobblestone formation was determined, and dose-response curves against the 7 cell types were generated for each compound.

[2] = tested on: normal primary human CD34+ cells; test: Alamar Blue assay for human progenitor cell toxicity; settings: for IC50: Homo sapiens, 168 h, read-out: Normal Progenitor* IC50
Procedure: Normal G-CSF mobilized CD34+ cells (AllCells, LLC, Emeryville, Calif.), normal BM CD34 cells (MSKCC, New York, N.Y.) and cord blood CD34+ cells (New York Blood Center, New York) were previously frozen and thawed out before the proliferation assay was set up in 384-well plates. Briefly, 50 μl of IMDM medium containing 20% FBS (Gemini Bio-Product, West Sacramento, Calif.), 20 ng/ml of recombinant human Kit Ligand (rhKL), 20 ng/ml of rh-Interleukin-3 (rhIL-3), 20 ng/ml of rhG-CSF, 6 units/ml of rhEPO, 10-42-mercaptoethanol, 2 mM glutamine, 50 u/ml penicillin, 50 μg/ml streptomycin, 1,000 viable CD34+ cells in the presence of various doses of Broad compounds (drug-treated group) or 0.1% DMSO (control group) were incubated at 37° C. After 6 days, 5 μl of AlamaBlue (AbD Serotec, Raleigh, N.C.) was added to each well and further incubated overnight. The fluorescence signal was then measured with GeminiXS microplate reader (Molecular Devices, Sunnyvale, Calif.). Effect of small molecules to proliferation of CD34+ cells was reported as Relative fluorescent intensity (Relative Fluorescent Intensity=Fluorescent Intensity (drug-treated)/Fluorescent Intensity (Control).
Finally, experiments were performed to examine whether BRD7116 or lovastatic acid were likely to cause myelosuppression, a type of deleterious toxicity in patients resulting from harm to normal human hematopoietic progenitor cells. This consideration is especially important as conventional therapies currently used in the clinic have myelosuppressive toxicities that are dose-limiting. To this end, a hematopoietic progenitor assay was employed to compare the effects of BRD7116 and lovastatic acid to effects given by such known myelosuppressive compounds. In this assay, normal primary human CD34^+ cord blood cells were plated with cytokines in suspension, treated with compound for 7 days, and then examined for viability relative to DMSO treated controls.

MLL-AF9 LSC = test: Triple coculture (LSCs and HSPCs on primary MSCs), leukemia cells; assay type: cell-based, murine; settings: for leukemic cells in triple coculture: 200 nM lovastatic acid or 1 μM BRD7116, 5 days; for IC50: Mus musculus, MLL-AF9, murine LSCs in triple coculture with HSPCs on MSCs
Procedure: As in the original assay approach, treatment of these triple cocultures began one day after hematopoietic cell plating and was assessed 5 days later.
An in vitro therapeutic index was determined for each compound, a comparative measure of the potential for anti-LSC efficacy relative to the potential for dose-limiting toxicities to normal HSCs (myeloablation), or to normal progenitors (myelosuppression). Specifically, ratios were created using the IC50s for primary murine HSPCs in triple coculture as the numerator, and the IC50s for primary murine leukemia inhibition in triple coculture as the denominator, toward assessing the potential for HSC harm relative to LSC inhibition.

primary leukemia cells = test: Annexin V apoptosis assay; assay type: cell-based, murine; settings: 22 hours in suspension, compared to DMSO control
Procedure: Compounds were added to a final DMSO concentration of 0.02%. […] The cells were analyzed by flow cytometry on a FacsCanto II (Becton Dickinson).

[3] = tested on: LSC-enriched leukemia cells (MLL-AF9); test: Leukemia coculture assay on primary MSC stroma (cobblestoning readout); assay type: cell-based, murine; settings: for IC50: read-out: Leukemia IC50; for leukemia-selective activity in coculture vs normal HSPCs: primary MSC stroma
Procedure: Whole bone marrow were harvested from C57/B16 actin-dsRed mice (006051, Jackson Labs), subjected to red blood cell lysis (Qiagen), then granulocyte-macrophage progenitors (GMPs) were isolated by Fluorescence-activated cell sorting (FACsAria, Becton Dickinson). GMPs were spinfected twice (2500 rpm, 90 min, 37 C) in the presence of mIL3 (10 ng/ml, Peprotech), mIL6 (10 ng/ml, Peprotech), and mSCF (10 ng/ml, Peprotech) with pMSCV-MLL-AF9-Neo virus then transplanted into lethally irradiated C57/B16 recipients. After disease onset, the spleens were harvested and transplanted into sublethally irradiated secondary recipients. Subsequent transplantation of bulk spleen cells from leukemic secondary mice was repeated twice to generate leukemic GMPs from quaternary transplant leukemic mouse bone marrow.
Long bones and hips from moribund leukemic mice were harvested, cleaned, crushed and sequentially passed through 100 and 70 μM filters (Falcon). The cells were RBC lysed (Qiagen) and stained in PBS+2% FBS (Omega). Antibodies included lineage markers CD4, CD8, Gr1, Mac1, IL-7R, and Ter119 (Caltag), c-kit (17-1172-83, eBioscience), Sca-1 (11-5981-82, eBioscience), CD34 (11-0341-85, eBioscience), and CD16/32 (25-0161-82, eBioscience). Hoechst 33258 (H21491, Invitrogen) was also used, to identify live cells. Cells were sorted on a FacsAria II (Becton Dickinson).
The humerii, tibiae, ilia, femurs, and spine were isolated from actin-GFP mice (000329, Jackson Lab) crushed using a mortar and pestle, washed in phosphate-buffered saline (PBS) without magnesium and calcium (Gibco) with 0.5% fetal bovine serum (FBS) (HyClone) and filtered through a 70-μm filter. Red blood cell lysis was performed with ammonium-chloride/potassium-chloride (ACK) lysing buffer (Lonza), the cells were resuspended in α-MEM (StemCell Technologies), 20% FBS (HyClone) and 1× Pen-Strep (CellGro), plated in 25 ml in 150-cm^2 tissue-culture flasks (three per mouse), and incubated at 33° C. with 5% CO2. After 2-3 days, the medium was replaced with fresh α-MEM with 20% FBS. After 8-14 days, the cells were rinsed, split by trypsinization (CellGro), pooled, filtered through a 70 μm filter, replated at 3-4 million cells per 150-cm^2 tissue-culture flask, and grown at 33° C. with 5% CO2 for 3-4 days until nearly confluent. The cells were trypsinized, filtered, and resuspended in 0.5% FBS in PBS with biotin-conjugated anti-mouse CD105 antibody (eBioscience) for 15-30 minutes at room temperature. The CD105-labeled cells were incubated with Dynabead M-280 streptavidin-linked magnetic beads (Invitrogen) for 15-30 minutes at 4° C. with agitation and isolated using magnetic separation and rinsed once. The CD105^+ cell fraction was replated at 1-2 million cells per 150-cm^2 tissue-culture flask and incubated at 33° C. with 5% CO2 for 2-3 days.
The MSCs were trypsinized, filtered, diluted in phenol-red-free alpha-MEM with 20% FBS, and plated (30 μl for a total of 2000 cells per well) on 384-well clear-bottomed black tissue-culture treated plate (3712, Corning) pretreated with fibronectin (Millipore). Plate covers (VWR) were added, the plates were spun and at 500 with slow braking, and the cells were incubated at room temperature for 60-90 minutes before incubation at 33° C. with 5% CO2 for 3 days prior to hematopoietic cell plating. […]

[4] = Mus musculus, MLL-AF9, LSCs on primary MSC stroma, 8-point dose

SMILES: CCC(C)C(=O)OC1CC(C)C=C2C=CC(C)C(CCC(O)CC(O)CC(=O)O)C21 (stereo not shown) [Lovastatic acid]
- leukemia cobblestone inhibition (human CAFC) [1]: leukemia cobblestone inhibition was observed across all six primary leukemia samples
- toxicity to hematopoietic progenitor cells [2]: minimal toxicity
- IC50 [2]: 10000 nM
- leukemic cells in triple coculture (MLL-AF9 LSC): selectively cleared the dsRed^+ leukemic cells
- leukemic cells in triple coculture (MLL-AF9 LSC; listed as lovastatin): selective loss of the leukemia population
- IC50 (MLL-AF9 LSC): 100 nM
- induction of apoptosis (Annexin V) (primary leukemia cells): underwent apoptosis
- IC50 ([3]; LSCs on primary MSC stroma, 8-point dose): 167 nM
- IC50 [3, 4]: < 200 nM
- IC50 ([3]; Mus musculus, MLL-AF9, statins (acid form), LSCs cocultured on primary MSC stroma): < 200 nM
- leukemia-selective activity in coculture vs normal HSPCs [3]: leukemia-selective activity

SMILES: CC1(C)C(C(=O)Nc2ccc(S(=O)(=O)c3ccc(NC(=O)C4C(C)(C)C4(C)C)cc3)cc2)C1(C)C [BRD7116]
- leukemia cobblestone inhibition (human CAFC) [1]: leukemia cobblestone inhibition was observed across all six primary leukemia samples
- toxicity to hematopoietic progenitor cells [2]: minimal toxicity
- IC50 [2]: 10000 nM
- leukemic cells in triple coculture (MLL-AF9 LSC): selective loss of the leukemia population; also recorded: selectively cleared the dsRed^+ leukemic cells
- IC50 (MLL-AF9 LSC): 500 nM
- induction of apoptosis (Annexin V) (primary leukemia cells): mild induction of apoptosis
- IC50 [3, 4]: 204 nM
- leukemia-selective activity in coculture vs normal HSPCs [3]: selective loss of the LSC-enriched leukemia cells
